In US20250099448A1, “HETEROCYCLIC COMPOUNDS” (Hoffmann-La Roche Inc., priority 2022, published 2025):
pIC50: −log10 of the molar value.

molecular target: T1, MAGL protein (Homo sapiens, UniProt Q99685); assay: 2-AG assay: MAGL inhibitory activity by hydrolysis of 2-arachidonoylglycerol to arachidonic acid, followed by mass spectrometry; type: biochemical; settings: 8 μM 2-arachidonoylglycerol, 15 min preincubation, 30 min reaction at RT, RapidFire MS readout
T1 sequence (Q99685 1-303): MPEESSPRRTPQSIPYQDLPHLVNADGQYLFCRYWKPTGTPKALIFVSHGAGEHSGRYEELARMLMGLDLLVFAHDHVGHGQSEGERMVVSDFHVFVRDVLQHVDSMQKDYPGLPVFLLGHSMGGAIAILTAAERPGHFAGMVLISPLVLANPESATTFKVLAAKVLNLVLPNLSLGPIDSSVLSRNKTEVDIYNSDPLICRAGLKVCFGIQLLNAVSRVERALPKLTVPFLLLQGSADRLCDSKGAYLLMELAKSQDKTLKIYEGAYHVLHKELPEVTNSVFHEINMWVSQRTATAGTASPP
Summary of the method: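 Activity was measured by RapidFire SPE–triple-quad MS as the ratio of arachidonic acid to d8-arachidonic acid after 2-AG hydrolysis (8 μM substrate, 30 min, RT, acetonitrile quench). Compounds, tested from 12.5 μM down to […], were first preincubated 15 min with MAGL in TRIS/EDTA/Tween-20 buffer containing 2.5% DMSO.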

Structure (SMILES) | pIC50
O=C(N1CC2(CC(c3nnc(C4CC4)[nH]3)C2)C1)N1CC2(C1)CN(S(=O)(=O)c1ccc(C(F)(F)F)cc1)C2 [compound 103] | 7.60
CS(=O)(=O)C1(c2ccc(C3CN(C(=O)N4CC5(CC(c6nc(C7CC7)n[nH]6)C5)C4)C3)cc2)CC1 [compound 776] | 8.23
O=C(N1CC2(CC(c3nc(C(F)(F)F)n[nH]3)C2)C1)N1CC2(CN(Cc3ccc(S(=O)(=O)C(F)(F)F)cc3)C2)C1 [compound 850] | 7.86
CNC(=O)c1ccccc1CN1CC2(C1)CN(C(=O)N1CC3(CC(c4nnc(C5CC5)[nH]4)C3)C1)C2 [compound 173] | 6.64
O=C(N1CC2(CC(c3nc(C4CC4)n[nH]3)C2)C1)N1CC2(CN(Cc3cnc(C(F)(F)F)s3)C2)C1 [compound 784] | 8.29
O=C(N1CC2(CC(Cc3nc(C(F)(F)F)cs3)C2)C1)N1CC2(CC(c3nc(C4(O)CC4)n[nH]3)C2)C1 [compound 536] | 8.41
O=C(N1CC2(CC(c3nc(C4CC(F)(F)C4)n[nH]3)C2)C1)N1CC2(CN(Cc3ncc(C(F)(F)F)s3)C2)C1 [compound 596] | 6.45
O=C(N1CC(NCc2ccc(C(F)(F)F)cc2F)C1)N1CC2(CC(c3nnc(C4CCC4)[nH]3)C2)C1 [compound 206] | 6.63
Cn1cc(CN2CC3(C2)CN(C(=O)N2CC4(CC(c5nc(C6CC6)n[nH]5)C4)C2)C3)c(C(F)(F)F)n1 [compound 472] | 7.75

The next compounds have a higher pIC50 than those just listed; values first:

pIC50 | Structure (SMILES)
9.19 | O=C(N1CC(c2ccc(N3CC(C(F)(F)F)C3)nc2)C1)N1CC2(CC(c3nnc(C4CC4)[nH]3)C2)C1 [compound 258]
8.90 | O=C(N1CC2(CC(Cc3cncc(S(=O)(=O)C(F)(F)F)c3)C2)C1)N1CC2(CC(c3nc(C4(O)CC4)n[nH]3)C2)C1 [compound 560]
9.47 | N=S(=O)(c1ccc(CC2CC3(C2)CN(C(=O)N2CC4(CC(c5nc(C6(O)CC6)n[nH]5)C4)C2)C3)cc1)C(F)(F)F (stereo not shown) [compound 555]
8.91 | CP(C)(=O)c1ccc(CC2CC3(C2)CN(C(=O)N2CC4(CC(c5nnc(C6CC6)[nH]5)C4)C2)C3)c(C(F)(F)F)c1 [compound 890]
9.51 | O=C(N1CC2(CC(Cn3nccc3C(F)(F)F)C2)C1)N1CC2(CC(c3nc(C4(F)CC4)n[nH]3)C2)C1 [compound 457]
8.66 | O=C(N1CC2(CC(Cc3cc(F)cc(C(F)(F)F)c3)C2)C1)N1CC2(CC(c3nc(C4COC4)n[nH]3)C2)C1 [compound 742]
9.48 | O=C(N1CC(c2ccc(-n3nc(C4CC4)cc3C(F)F)cc2)C1)N1CC2(CC(c3nnc(C4CC4)[nH]3)C2)C1 [compound 875]
10.05 | N#Cc1ccc(CC2CC3(C2)CN(C(=O)N2CC4(CC(c5nc(C6(F)CC6)n[nH]5)C4)C2)C3)cc1C(F)(F)F [compound 569]
9.89 | O=C(N1CC2(CC(c3nc(C4CC4)n[nH]3)C2)C1)N1CC2(CC[C@@H](Cc3ccc(S(=O)(=O)C(F)(F)F)cc3)C2)C1 [compound 612]
10.15 | O=C(N1CC2(CC(Cc3ccc(F)cc3F)C2)C1)N1CC2(CC(c3nnc(C4CC4)[nH]3)C2)C1 [compound 35]
